Laboratory results as given in the supplement of paper PMC10307832.

Columns and labels:
Assay in all cases: relative viability (nuclei count vs DMSO), 5 days (fraction); higher = more cells survive
[1] = compound: Cc1nc(C(=O)NCC(=O)O)c(O)c2ccc(Oc3ccccc3)cc12 [FG-4592] + CCNC(=O)c1noc(-c2cc(C(C)C)c(O)cc2O)c1-c1ccc(CN2CCOCC2)cc1 [Luminespib] (partner 0.01 µM)
Method in brief: (§1)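 Relative viability is defined as nuclei in treated wells over nuclei in vehicle wells. Duplicate plates were run and medians reported. Lung cancer cell lines in 1536-well plates were dosed by pin tool one day after seeding, with one drug or with a fixed anchor-drug dose plus five library-drug doses (not always all listed) in √10 steps, and nuclei were counted after 5 days.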

[2] = compound: Cc1nc(C(=O)NCC(=O)O)c(O)c2ccc(Oc3ccccc3)cc12 [FG-4592] + Cc1nc(NC(=O)N2CCC[C@H]2C(N)=O)sc1-c1ccnc(C(C)(C)C(F)(F)F)c1 [Alpelisib] (partner 2 µM)
Method in brief: as §1

[3] = compound: CC1=CC(=C(N1C2=CC=C(C=C2)Cl)C)C(=O)CN3CCCCC3 [IU1-47] + N=C(N)NC(=N)NCCc1ccccc1 [Phenformin] (partner 250 µM)
Method in brief: as §1

[4] = compound: CC1=CC(=C(N1C2=CC=C(C=C2)Cl)C)C(=O)CN3CCCCC3 [IU1-47] + CC1(C)CCC(c2ccc(Cl)cc2)=C(CN2CCN(c3ccc(C(=O)NS(=O)(=O)c4ccc(N[C@H](CCN5CCOCC5)CSc5ccccc5)c(S(=O)(=O)C(F)(F)F)c4)cc3)CC2)C1 [Navitoclax] (partner 0.5 µM)
Method in brief: as §1

Cell Line | relative viability ([1]; first compound 0.08 µM) | relative viability ([1]; first compound 0.253 µM) | relative viability ([1]; first compound 0.8 µM) | relative viability ([1]; first compound 2.53 µM) | relative viability ([1]; first compound 8 µM) | relative viability ([2]; first compound 0.08 µM) | relative viability ([2]; first compound 0.253 µM) | relative viability ([2]; first compound 0.8 µM) | relative viability ([2]; first compound 2.53 µM) | relative viability ([2]; first compound 8 µM) | relative viability ([3]; first compound 0.08 µM) | relative viability ([3]; first compound 0.253 µM) | relative viability ([3]; first compound 0.8 µM) | relative viability ([3]; first compound 8 µM) | relative viability ([4]; first compound 0.08 µM) | relative viability ([4]; first compound 0.253 µM) | relative viability ([4]; first compound 0.8 µM) | relative viability ([4]; first compound 8 µM) | relative viability ([4]; first compound 2.53 µM) | relative viability ([3]; first compound 2.53 µM)
201T | 1.04 | 0.984 | 1.06 | 1.03 | 1.06 | 0.96 | 0.96 | 0.879 | 1.02 | 1.03 | 0.419 | 0.435 | 0.486 | 0.362 | 1.23 | 1.2 | 1.21 | 1.22 |  | 
A549 |  |  |  |  |  | 0.831 | 0.626 | 0.823 | 0.759 | 0.686 | 0.165 | 0.105 | 0.144 | 0.0832 | 1.23 | 1.27 | 1.21 | 1.1 | 1.26 | 
A-427 | 0.912 | 0.926 | 0.89 | 1.18 | 1 | 1.04 | 1.07 | 1.04 | 1.13 | 1.05 | 0.342 | 0.313 | 0.306 | 0.229 | 1.04 | 0.993 | 1.04 | 0.926 |  | 
ABC-1 | 0.501 | 0.515 |  | 0.413 | 0.42 | 1.17 |  | 1.17 | 0.958 | 0.866 | 0.212 | 0.234 | 0.202 | 0.247 |  |  |  |  |  | 
BEN | 0.337 | 0.386 | 0.39 | 0.437 | 0.218 | 0.831 | 0.807 | 0.753 | 0.965 | 0.701 | 0.263 | 0.24 | 0.27 | 0.275 | 0.073 | 0.0735 | 0.0687 | 0.0719 | 0.0707 | 
CAL-12T | 0.212 | 0.458 | 0.129 | 0.375 | 0.689 | 1.13 | 1.23 | 1.55 | 1.13 | 0.971 | 0.525 | 0.576 | 0.613 | 0.554 | 1.29 | 1.32 | 1.24 | 1.38 | 1.24 | 0.472
COR-L23 | 0.757 | 0.524 | 0.645 | 0.611 | 0.593 | 0.751 | 0.653 | 0.918 | 0.768 | 0.783 | 0.414 | 0.45 | 0.472 | 0.492 | 1.1 | 1.1 | 1.21 | 1.22 | 1.16 | 0.438
COR-L 105 | 0.779 | 0.696 | 0.752 | 0.847 | 0.776 | 1.07 | 0.91 | 0.981 | 0.732 | 1.02 | 0.418 | 0.438 | 0.506 | 0.454 | 0.896 | 0.809 | 0.865 | 0.68 | 0.81 | 0.501
Calu-6 |  |  |  |  |  | 0.952 | 0.846 | 1.12 | 0.985 | 0.969 |  |  |  |  | 1.07 | 1.01 | 0.827 | 0.802 | 0.867 | 
ChaGo-K-1 | 0.522 | 0.548 | 0.594 | 0.702 | 0.459 |  |  |  |  |  | 0.464 | 0.545 | 0.428 | 0.451 | 1.15 | 1.15 | 0.895 | 0.625 | 0.889 | 0.579
EBC-1 |  |  |  |  |  | 0.895 | 0.816 | 0.736 | 0.693 | 0.814 |  |  |  |  | 0.487 | 0.479 | 0.393 | 0.299 | 0.413 | 
EKVX | 0.842 | 0.807 | 0.81 | 0.891 | 0.9 | 0.786 | 0.858 | 0.932 | 0.79 | 0.932 | 0.24 | 0.262 | 0.263 | 0.252 | 1.24 | 1.17 | 0.965 | 0.882 | 0.973 | 0.259
EMC-BAC-2 | 1.2 | 1.11 | 1.1 | 1.17 | 1.11 | 0.745 | 0.718 | 0.705 | 0.764 | 0.713 | 0.548 | 0.569 | 0.53 | 0.409 | 1.25 | 1.26 | 1.21 | 1.04 | 1.16 | 0.627
EPLC-272H | 0.455 | 0.241 | 0.212 | 0.295 | 0.228 | 0.834 | 0.799 | 0.643 | 0.946 | 0.887 | 0.294 | 0.298 | 0.23 | 0.243 | 1.19 | 1.07 | 1.07 | 1.12 |  | 
H3255 | 0.891 | 0.804 | 0.848 | 0.945 | 0.875 | 0.634 | 0.664 | 0.67 | 0.791 | 0.81 | 0.426 | 0.358 | 0.294 | 0.352 | 0.557 | 0.602 | 0.489 | 0.446 | 0.511 | 0.365
HARA | 0.73 | 0.787 | 0.834 | 0.621 | 0.709 | 0.805 | 0.728 |  | 0.945 | 0.827 | 0.594 | 0.478 | 0.567 | 0.537 | 1.16 | 1.19 | 1.19 | 0.998 | 1.2 | 
HCC-15 | 0.403 | 0.371 | 0.26 | 0.302 | 0.253 | 0.883 | 0.856 | 0.913 | 0.871 | 0.915 | 0.482 | 0.497 | 0.557 | 0.432 | 0.829 | 0.721 | 0.815 | 0.589 | 0.626 | 0.491
HCC-44 | 1.05 | 1.01 |  | 0.934 | 1.05 | 0.767 | 0.786 | 0.876 | 0.936 | 0.797 | 0.167 | 0.183 | 0.143 | 0.183 | 1.14 | 1.01 | 1 | 0.956 | 0.908 | 0.221
